Assay results from patent US9375002B2, “5-aminopyrimidine derivatives and use thereof for combating undesired plant growth” (BAYER INTELLECTUAL PROPERTY GMBH, priority 2012, dated 2016).

Columns and labels:
[1] = tested on: Amaranthus retroflexus; experiment: Post-emergence herbicidal effect; type: in vivo; settings: 1280 g/ha, visual rating after about 3 weeks
Experimental: (§1) AMARE: Amaranthus retroflexus ECHCG: Echinochloa crus-galli 2. Post-Emergence Herbicidal Effect and Crop Plant Compatibility Seeds of monocotyledonous and dicotyledonous weed and crop plants are placed in sandy loam in wood-fiber pots, covered with soil and cultivated in a greenhouse under good growth conditions. 2 to 3 weeks after sowing, the test plants are treated at the one-leaf stage. The compounds according to the invention, formulated in the form of wettable powders (WP) or as emulsion concentrates (EC), are then sprayed as aqueous suspension or emulsion at a water application rate of 600 to 800 I/ha (converted) with the addition of 0.2% of wetting agent onto the green parts of the plants. After the test plants have been kept in the greenhouse under optimum growth conditions for about 3 weeks, the activity of the preparations is rated visually in comparison to untreated controls (herbicidal activity in percent (%): 100% activity=the plants have died, 0% activity=like control plants).

[2] = tested on: Lolium multiflorum; experiment: Pre-emergence herbicidal effect; type: in vivo; settings: 1280 g/ha, visual assessment after 3 weeks
Excerpt: (§2) 1. Pre-Emergence Herbicidal Effect and Crop Plant Compatibility Seeds of monocotyledonous and dicotyledonous weed plants and crop plants are placed in wood-fiber pots in sandy loam and covered with soil. The inventive compounds, formulated in the form of wettable powders (WP) or as emulsion concentrates (EC), are then applied to the surface of the covering soil as an aqueous suspension or emulsion at a water application rate of 600 to 800 I/ha (converted) with addition of 0.2% wetting agent. After the treatment, the pots are placed in a greenhouse and kept under good growth conditions for the test plants. The damage to the test plants is assessed visually after a test period of 3 weeks by comparison with untreated controls (herbicidal activity in percent (%): 100% action=the plants have died, 0% action=like control plants). LOLMU: Lolium multiflorum MATIN: Matricaria inodora

[3] = tested on: Matricaria inodora; experiment: Pre-emergence herbicidal effect; type: in vivo; settings: 1280 g/ha, visual assessment after 3 weeks
Excerpt: as §2

[4] = tested on: Viola tricolor; experiment: Pre-emergence herbicidal effect; type: in vivo; settings: 1280 g/ha, visual assessment after 3 weeks
Excerpt: as §2, with “VIOTR: Viola tricolor” for “LOLMU: Lolium multiflorum MATIN: Matricaria inodora”

[5] = tested on: Viola tricolor; experiment: Post-emergence herbicidal effect; type: in vivo; settings: 1280 g/ha, visual rating after about 3 weeks
Experimental: as §1, with “VIOTR: Viola tricolor” for “AMARE: Amaranthus retroflexus ECHCG: Echinochloa crus-galli”

[6] = tested on: Stellaria media; experiment: Post-emergence herbicidal effect; type: in vivo; settings: 1280 g/ha, visual rating after about 3 weeks
Experimental: as §1, with “STEME: Stellaria media VERPE: Veronica persica” for “AMARE: Amaranthus retroflexus ECHCG: Echinochloa crus-galli”

[7] = tested on: Veronica persica; experiment: Post-emergence herbicidal effect; type: in vivo; settings: 1280 g/ha, visual rating after about 3 weeks
Experimental: as §1, with “STEME: Stellaria media VERPE: Veronica persica” for “AMARE: Amaranthus retroflexus ECHCG: Echinochloa crus-galli”

[8] = logp (HCOOH), physicochemical characterization; settings: HCOOH

Row | Compound | herbicidal activity AMARE [1] | herbicidal activity LOLMU [2] | herbicidal activity MATIN [3] | herbicidal activity VIOTR [4] | herbicidal activity VIOTR [5] | herbicidal activity STEME [6] | herbicidal activity VERPE [7] | logp (HCOOH) [8]
1 | Cc1ccc2c(c1)[C@H](Nc1cnc(S(C)(=O)=O)nc1)[C@@H](C)C2 [compound 134] | 80% | 100% | 100% | 100% | 90% | 100% | 90% | 
2 | CCc1ccc2c(c1)C(Nc1cnc(S(C)(=O)=O)nc1C(=O)O)CCO2 (racemic) [compound 68] |  | 90% | 100% | 100% | 80% |  |  | 
3 | CCc1ccc2c(c1)C(Nc1cnc(S(C)(=O)=O)nc1)CCO2 (racemic) [compound 65] |  | 90% | 100% | 100% |  | 90% |  | wax-like; logp (HCOOH): 2.54; 1H-NMR (CDCl3, 400 MHZ, δ in ppm): 1.20 (t, 3H,
